Patent publication US12707888B2, “Asymmetric donor-acceptor molecular dyes” (THE UNIVERSITY OF NORTH CAROLINA AT CHARLOTTE, priority 2019, dated 2026)

Tests used:
[1] = in cyclohexane; cited from earlier work
[2] = Lippert-Mataga analysis of excited state dipole moments; type: physicochemical; conditions: semi-empirically calculated using the Lippert-Mataga equation
Method: The calculated HOMOs/LUMOs indicate that the strong solvatofluorochromism arises from an ICT mechanism, whereby the ground state has significant electron localization on the donor side of the molecule whereas the electron density shifts to the acceptor moiety in the excited state. To more directly quantify the strong ICT character of the TTz dyes, the excited-state dipole moments were calculated using the Lippert-Mataga equation (Eq 1):
[formula] where va and vf are the wavenumbers of the absorption and emission peaks in cm^−1, respectively; μ* and μ are the excited state and ground state dipoles, respectively; ϵ0 is the vacuum permittivity, h is Planck's constant, c is the speed of light, a is the Onsager cavity radius, Δf is the orientation polarizability, ϵ is the relative permittivity, and η is the refractive index. The dipoles were calculated using Spartan 2016 software, and the Onsager cavity radii were calculated using Gaussian '09 software.
FIGS. 9A and 9B show the Stokes shift of Bu2N-TTz-Py and Ph2N-TTz-COOH versus Δf, respectively. From the slopes of the Lippert-Mataga plots, the change between the dipole moments of the ground and excited states can be determined. Even though the Lippert-Mataga equation assumes no specific solvent-solute interactions (e.g. hydrogen bonding) and ignores solute polarizability, high degrees of linearity are apparent; and therefore, the estimations of the excited state dipoles are regarded as reliable. […] Perhaps owing to the minimal solvent interactions and rapid vibrational relaxation, the estimated changes in dipole moments (Δμ) are remarkably large (Table IV). […] Therefore, it is expected that these asymmetric TTzs dyes would be well suited to give high sensitivity in sensing applications whereby small changes in the polarity of the environment can lead to large differences in the wavelengths of fluorescence.

[3] = UV-Vis absorbance, fluorescence emission and quantum yield in organic solvents; type: physicochemical; conditions: for peak absorbance λmax, abs: in DCM
Method: The absorption, emission, and fluorescence lifetime characteristics of all four TTz dyes were recorded in a variety of organic solvents (FIGS. 7A-7B, Table of FIG. 8). Additionally, HOMO/LUMO levels of the TTz dyes were determined computationally in Spartan 16 using B3LYP/6-31g. Molar absorptivities of all the TTz dyes ranged from 13,000 to 86,000 cm^−1M^−1. […] However, the peak absorbance of Bu2N-TTz-Py in DCM was slightly red-shifted as compared to that of Ph2N-TTz-Py (λmax, abs=429 nm vs λmax, abs=422 nm in DCM), which is attributed to the diphenylamine moiety having weaker donor characteristics. […] Due to the low estimated ground state dipole moments of the TTz dyes (μ=6-8 D), their wavelengths of absorbance remained relatively solvent independent (st. dev.=±11 nm).
4-pyridine carboxaldehyde, 4-(dibutylamino)benzaldehyde, 4-(diphenylamino)benzaldehyde, terephthalaldehyde, dithiooxamide, and all solvents used for spectroscopic measurements were purchased from Sigma-Aldrich and used without further purification. ^1H and ^13CNMR measurements were obtained with either a JEOL 300 MHz NMR or a JEOL 500 MHz NMR. High resolution mass spectra were obtained using a Thermo Fisher Scientific MSQ Plus Single Quadrupole Mass Spectrometer. Solution-state UV-Vis spectra were collected on a Cary 300 UV-Vis spectrophotometer. Time-resolved measurements were taken on a Jobin Yvon-Spex Fluorolog equipped with a 389 nm diode laser for time-resolved PL decay measurements. Igor Pro 6.3 software was used to fit PL(t) decay data to single/multiple exponential decays. Quantum yields were calculated using 9,10-diphenylanthracene as a reference (quantum yield [ΦF] in cyclohexane=0.97).^40-41 Density functional theory (DFT) calculations were performed with Spartan computational software using B3LYP^42-43 density functional and 6-31G*^44 basis set. Temperature studies were conducted using a 10 μM Bu2N-TTz-Py MeTHF solution placed inside of a Norrell 502 NMR tube and sequentially submerged in the following liquid N2 baths:octanol (−16° C.), acetonitrile (−41° C.), acetone (−94° C.), pentane (−131° C.), MeTHF (−136° C.), and liquid N2 itself (−196° C.). The phosphorescence spectrum of Bu2N-TTz-Py (see S2) was collected similarly at −196° C. by pumping with 389 nm light while inside a liquid nitrogen bath and then probing the emission within 2 sec of removing from the bath. Human embryonic kidney cells (HEK 293T) were a kind gift from Prof. Bryan Dickinson, and Mouse macrophage J774A.1 cells were a kind gift from Prof. Deborah Nelson at the University of Chicago. Cells were cultured in Dulbecco's Modified Eagle's Medium (Invitrogen Corporation, USA) containing 10% heat inactivated Fetal Bovine Serum (FBS) (Invitrogen Corporation, USA), 100 U/mL penicillin, and 100 μg/mL streptomycin. Cells were maintained at 37° C. under 5% CO2.

[4] = TCSPC fluorescence lifetime in solvents; type: physicochemical
Excerpt: TCSPC measurements of the TTz dyes show a general upward trend for fluorescent lifetimes as the polarity increases in aprotic solvents—from 1.50-1.89 ns in nonpolar solvents to ~3.00 ns in polar, aprotic solvents (Table of FIG. 8). The fluorescence lifetimes in protic solvents have the opposite trend; that is, a decrease in the fluorescence lifetime as the polarity increases (e.g. for Ph2N-TTz-COOH: τf, iPrOH=2.40 ns, τf, MeOH=1.80 ns). The trend reversal in the fluorescence lifetime can most likely be attributed to the presence of hydrogen bonding in protic solvents. […] At the same time, the non-radiative rates of each TTz generally increases as solvent polarity increases. […] Regardless, the fact that the fluorescence lifetimes are solvent dependent opens up the possibility of using these TTz dyes for measuring micelle formation and viscosity in living cells using fluorescence lifetime imaging (FLIM).
4-pyridine carboxaldehyde, 4-(dibutylamino)benzaldehyde, 4-(diphenylamino)benzaldehyde, terephthalaldehyde, dithiooxamide, and all solvents used for spectroscopic measurements were purchased from Sigma-Aldrich and used without further purification. ^1H and ^13CNMR measurements were obtained with either a JEOL 300 MHz NMR or a JEOL 500 MHz NMR. High resolution mass spectra were obtained using a Thermo Fisher Scientific MSQ Plus Single Quadrupole Mass Spectrometer. […]

| Structure (SMILES) | quantum yield [ΦF] of reference [1] | Change in Dipole Δμ [2] [D] | Excited State Dipole μ* [2] [D] | peak absorbance λmax, abs [3] [nm] | fluorescence lifetime τf, MeOH ([4]; MeOH) [ns] | fluorescence lifetime τf, iPrOH ([4]; iPrOH) [ns] | largest Stokes shift ([3]; largest across solvents) [eV] |
| --- | --- | --- | --- | --- | --- | --- | --- |
| c1ccc(-c2c3ccccc3c(-c3ccccc3)c3ccccc23)cc1 [9,10-diphenylanthracene] | 0.97 | – | – | – | – | – | – |
| O=Cc1ccc(-c2nc3sc(-c4ccc(N(c5ccccc5)c5ccccc5)cc4)nc3s2)cc1 [Ph2N-TTz-CHO, 2-(N,N-diphenyl-4-aminophenyl)-5-(4-formylphenyl) thiazolo[5,4-d]thiazole] | – | 18.0 | 24.9 | 434 | – | – | – |
| O=C(O)c1ccc(-c2nc3sc(-c4ccc(N(c5ccccc5)c5ccccc5)cc4)nc3s2)cc1 [Ph2N-TTz-COOH, 2-(N,N-diphenyl-4-aminophenyl)-5-(4-carboxyphenyl) thiazolo[5,4-d]thiazole] | – | 13.0 | 21.3 | – | 1.80 | 2.40 | – |
| c1ccc(N(c2ccccc2)c2ccc(-c3nc4sc(-c5ccncc5)nc4s3)cc2)cc1 [Ph2N-TTz-Py, 2-(N,N-diphenyl-4-aminophenyl)-5-(4-pyridyl) thiazolo[5,4-d]thiazole] | – | 14.6 | 20.8 | 422 | – | – | 0.750 |
